One block for each molecule: values may come before it.
Columns and labels:
[1] = target: T1, CalA3 (Streptomyces chartreusis, UniProt A0A2N9BJK0); assay: HPLC turnover assay at […] nm, products confirmed by LC-HRMS and NMR; format: biochemical; conditions: 5 µM CalA3, 0.15 mM SNAC-N1, 0.5 mM 3-HAA, 25 mM Tricine pH 7.5, 30 °C, 13 h; amidation and hydrolysis
T1 construct: gene SCNRRL3882_6975; full length, gene 5178 bp, C-terminal 6xHis tag (pET28a), E. coli BAP1; about 180 kDa per chain, homodimer about 360 kDa; domains DD-KS-LD-AT-DH-psiKR/KR, no ACP
T1 sequence (A0A2N9BJK0 1-1727): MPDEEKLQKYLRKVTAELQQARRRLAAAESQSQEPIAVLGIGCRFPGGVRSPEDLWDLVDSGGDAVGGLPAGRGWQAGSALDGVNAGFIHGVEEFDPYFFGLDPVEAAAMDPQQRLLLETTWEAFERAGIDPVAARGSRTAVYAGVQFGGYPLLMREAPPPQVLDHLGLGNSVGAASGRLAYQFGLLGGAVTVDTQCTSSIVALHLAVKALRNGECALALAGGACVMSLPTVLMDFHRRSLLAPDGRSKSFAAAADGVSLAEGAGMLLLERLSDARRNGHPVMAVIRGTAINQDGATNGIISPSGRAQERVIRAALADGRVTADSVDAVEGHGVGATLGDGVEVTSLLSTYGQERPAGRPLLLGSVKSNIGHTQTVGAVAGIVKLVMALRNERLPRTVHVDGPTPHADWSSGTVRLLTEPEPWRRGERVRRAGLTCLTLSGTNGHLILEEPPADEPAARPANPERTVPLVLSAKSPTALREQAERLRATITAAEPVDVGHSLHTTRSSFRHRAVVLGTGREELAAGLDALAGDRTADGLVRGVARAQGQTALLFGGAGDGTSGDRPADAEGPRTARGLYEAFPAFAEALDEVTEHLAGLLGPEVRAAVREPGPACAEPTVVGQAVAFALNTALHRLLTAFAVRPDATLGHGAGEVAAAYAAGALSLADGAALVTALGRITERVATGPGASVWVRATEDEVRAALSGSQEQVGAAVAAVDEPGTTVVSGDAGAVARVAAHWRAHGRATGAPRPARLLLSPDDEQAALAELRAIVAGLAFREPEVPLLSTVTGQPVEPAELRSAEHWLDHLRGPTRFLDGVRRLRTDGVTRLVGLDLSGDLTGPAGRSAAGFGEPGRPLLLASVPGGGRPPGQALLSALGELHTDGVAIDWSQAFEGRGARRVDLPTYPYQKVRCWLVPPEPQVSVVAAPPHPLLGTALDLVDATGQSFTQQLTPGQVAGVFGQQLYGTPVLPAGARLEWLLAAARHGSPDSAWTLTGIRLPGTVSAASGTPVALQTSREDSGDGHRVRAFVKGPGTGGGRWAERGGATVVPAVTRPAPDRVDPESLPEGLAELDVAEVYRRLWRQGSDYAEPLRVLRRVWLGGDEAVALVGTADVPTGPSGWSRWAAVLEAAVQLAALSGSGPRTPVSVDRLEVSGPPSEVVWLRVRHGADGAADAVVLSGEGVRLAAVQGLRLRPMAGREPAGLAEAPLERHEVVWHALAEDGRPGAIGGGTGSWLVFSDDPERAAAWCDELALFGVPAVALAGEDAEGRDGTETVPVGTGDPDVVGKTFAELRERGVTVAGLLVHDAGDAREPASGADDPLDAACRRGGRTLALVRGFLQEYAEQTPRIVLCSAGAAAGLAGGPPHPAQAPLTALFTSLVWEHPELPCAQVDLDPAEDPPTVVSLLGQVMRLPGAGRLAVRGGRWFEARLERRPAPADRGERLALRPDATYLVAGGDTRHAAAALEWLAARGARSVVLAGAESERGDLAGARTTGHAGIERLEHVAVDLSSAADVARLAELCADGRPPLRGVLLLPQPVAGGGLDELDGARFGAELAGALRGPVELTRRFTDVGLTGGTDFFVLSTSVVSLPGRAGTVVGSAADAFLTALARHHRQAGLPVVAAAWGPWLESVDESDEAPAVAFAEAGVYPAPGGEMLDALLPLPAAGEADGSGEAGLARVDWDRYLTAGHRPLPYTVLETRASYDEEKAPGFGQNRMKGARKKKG

[2] = target: T1, CalA3; assay: cryo-EM structure, […] Å; format: binding; conditions: KS substrate tunnel, chains A and B; specimen also contained 3-HAA; PDB id assigned by order of listing
[3] = target: T1, CalA3; assay: cryo-EM structure, […] Å; format: binding; conditions: KS substrate tunnel, chain A only; specimen also contained 3-HAA; PDB id assigned by order of listing
[4] = target: CalA3 (Streptomyces chartreusis NRRL 3882); assay: cryo-EM structure; purified CalA3 at ~4 mg/mL in 50 mM Tricine pH 8.0 with 1 mM 3-HAA and SNAC-N1 (further samples at ~4.5 mg/mL with amidation or hydrolysis product and 3-HAA); Titan Krios 300 kV, K3 detector; homodimer

Molecule: CC(=O)NCCSC(=O)CCCCCCCCCC(=O)c1ccc[nH]1 [compound 1, SNAC-N1]
HPLC turnover assay at 290 nm, products confirmed by LC-HRMS and NMR [1]: SNAC-N1 and 3-HAA were incubated with CalA3, and a total of three peaks were detected

Molecule: O=C(CCCCCCCCCC(=O)c1ccc[nH]1)Nc1c(O)cccc1C(=O)O [compound 3, amidation product]
cryo-EM structure, 3.84 Å [2]: the amidation products were captured in the KS domains of both chain A and B

Molecule: O=C(O)CCCCCCCCCC(=O)c1ccc[nH]1 [compound 2, 11-oxo-11-(pyrrol-2-yl) undecanoic acid]
cryo-EM structure, 3.97 Å [3]: the hydrolysis product was captured only in the KS domain of chain A

stoichiometry N [4]: 2
Molecule: CalA3 (enzyme)

— publication PMC10006239, “C–N bond formation by a polyketide synthase” (Nature Communications, 2023)
